Assay results from patent US10613104B2, “Assay to determine anticoagulants in blood or blood plasma” (ZAFENA AB, priority 2014, dated 2020).

Tested on: prothrombin time (PT) of normal plasma NKP
Assay: Three wet-chemistry Owren PT methods (Simple Simon PT; 20, 10, 5 μL sample in 200 μL reagent) on normal plasma NKP with added anticoagulant
Assay type: biochemical
Procedure: Experimental work was performed with the commercially available ambient room temperature coagulation instrument, Simple Simon P T Zafena A B, Linköping, Sweden, with functions described in EP 1 636 595 B2. One instrument or reader was used for each PT-method. Alternatively, the same instrument could be used for all PT-methods.
The three instruments were used together standing next to one another on a laboratory bench in thermal equilibrium with the ambient room temperature of the laboratory.
The ambient room temperature in the laboratory where the work was done varied between 21° C. and 26° C.
The PT-reagent was the one delivered together with lot N223M of the Simple Simon PT product, a reagent of Owren-type that thus contains effective amounts of thromboplastin, fibrinogen and FV (the thromboplastin of rabbit brain origin and the fibrinogen and the FV of bovine blood plasma origin). Other Owren type reagents could also be used.
The reagent was in portions of 200 μL to which sample, citrated blood or citrated blood plasma, was added and mixed. The addition was by an end-to-end plastic capillary mounted at one end of a tubular body with a displacement mechanism in the other end, this to allow convenient mixing of sample and reagent. Such Mixxocaps with 10 μL capillaries are supplied with the Simple Simon PT product. To perform the experiments described, some Mixxocaps were fitted with 20 μL capillaries, or 5 μL capillaries instead of the 10 μL capillaries with which they were supplied by the manufacturer.
The ratios between the volume of blood or blood plasma to the volume of liquid reagent used in the experiments were 1:11, 1:21 and 1:41. Other ratios lying within the range of 1:5 and 1:100 or within the range of 1:2 and 1:200 could be used.
Anticoagulated normal plasma was the NKP product GHI-163 lot 10188, MediRox AB, Nyköping, Sweden.
It was further relevant that all three PT-methods were calibrated, according to the invention, to show INR 1.000 for unadulterated NKP, and INR 1.357 for the NKP 1:2. All primary INR values, the results that appeared on the instrument screens (one instrument or reader was used for each PT-method), were therefore transformed to the corrected/calibrated INRc by the formula A*INRexp(B) where a and b were selected to given NKP and NKP 1:2 their desired values, 1.000 and 1.357, respectively. The INR-value of the NKP 1:2 was calculated by the formula of Lindahl et al for the INR of corresponding to PT-activity of 50% (half of the 100% that equates to INR 1.000). Above the INR calibrated columns (INRc) there is an upper number and a lower number, these are the above mentioned A and B, respectively.
As deemed relevant the upper number is selected to make NKP 1:2 to show INRc 1.357.
Clinical levels of interest range from 50 to 1000 μg/L in blood plasma.
In the selected calibration INR 1.000 and INR 1.357 were assigned to NKP and NKP 1:2, respectively, which was the same relevant calibration as selected in Examples 1 and 3 above.

[1] = apixaban 50 μg/L in NKP plasma, from PT (s)
[2] = apixaban 50 μg/L in NKP plasma, from instrument INR
[3] = apixaban 100 μg/L in NKP plasma
[4] = apixaban 100 μg/L in NKP plasma, from PT (s)
[5] = apixaban 100 μg/L in NKP plasma, from instrument INR
[6] = apixaban 200 μg/L in NKP plasma
[7] = apixaban 200 μg/L in NKP plasma, from PT (s)
[8] = apixaban 200 μg/L in NKP plasma, from instrument INR
[9] = apixaban 300 μg/L in NKP plasma
[10] = apixaban 300 μg/L in NKP plasma, from PT (s)
[11] = apixaban 300 μg/L in NKP plasma, from instrument INR
[12] = apixaban 400 μg/L in NKP plasma
[13] = apixaban 400 μg/L in NKP plasma, from PT (s)
[14] = apixaban 400 μg/L in NKP plasma, from instrument INR
[15] = apixaban 500 μg/L in NKP plasma
[16] = apixaban 500 μg/L in NKP plasma, from PT (s)
[17] = apixaban 500 μg/L in NKP plasma, from instrument INR
[18] = apixaban 600 μg/L in NKP plasma
[19] = apixaban 600 μg/L in NKP plasma, from PT (s)
[20] = apixaban 600 μg/L in NKP plasma, from instrument INR
[21] = apixaban 800 μg/L in NKP plasma
[22] = apixaban 800 μg/L in NKP plasma, from PT (s)
[23] = apixaban 800 μg/L in NKP plasma, from instrument INR
[24] = apixaban 1000 μg/L in NKP plasma
[25] = apixaban 1000 μg/L in NKP plasma, from PT (s)
[26] = apixaban 1000 μg/L in NKP plasma, from instrument INR

SMILES: COc1ccc(-n2nc(C(N)=O)c3c2C(=O)N(c2ccc(N4CCCCC4=O)cc2)CC3)cc1 [apixaban]
- INR 5 μL sample (apixaban 50 μg/L in NKP plasma): 1.12
- INR 10 μL sample (apixaban 50 μg/L in NKP plasma): 1.18
- INR 20 μL sample (apixaban 50 μg/L in NKP plasma): 1.28
- PT (s) 5 μL sample (apixaban 50 μg/L in NKP plasma): 47.7 s
- PT (s) 10 μL sample (apixaban 50 μg/L in NKP plasma): 39.1 s
- PT (s) 20 μL sample (apixaban 50 μg/L in NKP plasma): 35.5 s
- INRc 20 μL sample [1]: 1.23
- ΔINRc 10 μL − 5 μL [1]: 0.04
- ΔINRc 20 μL − 5 μL [1]: 0.19
- INRc 20 μL sample [2]: 1.30
- ΔINR 10 μL − 5 μL [2]: 0.07
- ΔINR 20 μL − 5 μL [2]: 0.24
- INR 5 μL sample [3]: 1.15
- INR 10 μL sample [3]: 1.27
- INR 20 μL sample [3]: 1.55
- PT (s) 5 μL sample [3]: 49.1 s
- PT (s) 10 μL sample [3]: 41.5 s
- PT (s) 20 μL sample [3]: 39.3 s
- INRc 20 μL sample [4]: 1.61
- ΔINRc 10 μL − 5 μL [4]: 0.12
- ΔINRc 20 μL − 5 μL [4]: 0.53
- INRc 10 μL sample [5]: 1.24
- INRc 20 μL sample [5]: 1.67
- ΔINR 10 μL − 5 μL [5]: 0.15
- ΔINR 20 μL − 5 μL [5]: 0.58
- INR 5 μL sample [6]: 1.29
- INR 10 μL sample [6]: 1.53
- INR 20 μL sample [6]: 2.12
- PT (s) 5 μL sample [6]: 54.4 s
- PT (s) 10 μL sample [6]: 47.9 s
- PT (s) 20 μL sample [6]: 46.7 s
- INRc 5 μL sample [7]: 1.20
- INRc 20 μL sample [7]: 2.53
- ΔINRc 10 μL − 5 μL [7]: 0.31
- INRc 5 μL sample [8]: 1.22
- INRc 10 μL sample [8]: 1.55
- INRc 20 μL sample [8]: 2.51
- ΔINR 10 μL − 5 μL [8]: 0.34
- ΔINR 20 μL − 5 μL [8]: 1.30
- INR 5 μL sample [9]: 1.44
- INR 10 μL sample [9]: 1.82
- INR 20 μL sample [9]: 2.82
- PT (s) 5 μL sample [9]: 60.6 s
- PT (s) 10 μL sample [9]: 54.6 s
- PT (s) 20 μL sample [9]: 54.8 s
- INRc 5 μL sample [10]: 1.35
- INRc 10 μL sample [10]: 1.88
- INRc 20 μL sample [10]: 3.85
- ΔINRc 10 μL − 5 μL [10]: 0.53
- ΔINRc 20 μL − 5 μL [10]: 2.50
- INRc 5 μL sample [11]: 1.35
- INRc 10 μL sample [11]: 1.91
- INRc 20 μL sample [11]: 3.66
- ΔINR 10 μL − 5 μL [11]: 0.56
- ΔINR 20 μL − 5 μL [11]: 2.30
- INR 5 μL sample [12]: 1.58
- INR 20 μL sample [12]: 3.68
- PT (s) 5 μL sample [12]: 66.3 s
- PT (s) 10 μL sample [12]: 62.3 s
- PT (s) 20 μL sample [12]: 63.5 s
- INRc 5 μL sample [13]: 1.48
- INRc 20 μL sample [13]: 5.66
- ΔINRc 10 μL − 5 μL [13]: 0.86
- ΔINRc 20 μL − 5 μL [13]: 4.18
- INRc 5 μL sample [14]: 1.48
- INRc 20 μL sample [14]: 5.18
- ΔINR 10 μL − 5 μL [14]: 0.87
- ΔINR 20 μL − 5 μL [14]: 3.70
- INR 5 μL sample [15]: 1.73
- INR 10 μL sample [15]: 2.37
- INR 20 μL sample [15]: 4.47
- PT (s) 5 μL sample [15]: 72.0 s
- PT (s) 10 μL sample [15]: 67.0 s
- PT (s) 20 μL sample [15]: 70.8 s
- INRc 5 μL sample [16]: 1.62
- INRc 10 μL sample [16]: 2.64
- INRc 20 μL sample [16]: 7.54
- ΔINRc 10 μL − 5 μL [16]: 1.02
- ΔINRc 20 μL − 5 μL [16]: 5.92
- INRc 5 μL sample [17]: 1.62
- INRc 10 μL sample [17]: 2.63
- INRc 20 μL sample [17]: 6.69
- ΔINR 10 μL − 5 μL [17]: 1.02
- ΔINR 20 μL − 5 μL [17]: 5.07
- INR 5 μL sample [18]: 1.90
- INR 10 μL sample [18]: 2.70
- INR 20 μL sample [18]: 5.56
- PT (s) 5 μL sample [18]: 78.8 s
- PT (s) 10 μL sample [18]: 73.9 s
- PT (s) 20 μL sample [18]: 79.9 s
- INRc 5 μL sample [19]: 1.78
- INRc 10 μL sample [19]: 3.10
- INRc 20 μL sample [19]: 10.35
- ΔINRc 10 μL − 5 μL [19]: 1.32
- ΔINRc 20 μL − 5 μL [19]: 8.57
- INRc 5 μL sample [20]: 1.77
- INRc 10 μL sample [20]: 3.08
- INRc 20 μL sample [20]: 8.91
- ΔINR 10 μL − 5 μL [20]: 1.31
- ΔINR 20 μL − 5 μL [20]: 7.14
- INR 5 μL sample [21]: 2.22
- INR 10 μL sample [21]: 3.35
- INR 20 μL sample [21]: 7.81
- PT (s) 5 μL sample [21]: 91.7 s
- PT (s) 10 μL sample [21]: 87.2 s
- PT (s) 20 μL sample [21]: 96.9 s
- INRc 5 μL sample [22]: 2.09
- INRc 20 μL sample [22]: 17.18
- ΔINRc 10 μL − 5 μL [22]: 1.99
- INRc 5 μL sample [23]: 2.06
- INRc 20 μL sample [23]: 13.91
- ΔINR 10 μL − 5 μL [23]: 1.94
- ΔINR 20 μL − 5 μL [23]: 11.85
- INR 5 μL sample [24]: 2.67
- INR 20 μL sample [24]: 10.70
- PT (s) 5 μL sample [24]: 111.2 s
- PT (s) 10 μL sample [24]: 109.3 s
- PT (s) 20 μL sample [24]: 117.4 s
- INRc 20 μL sample [25]: 28.43
- INRo [25]: 0.75
- ΔINRc 10 μL − 5 μL [25]: 3.37
- ΔINRc 20 μL − 5 μL [25]: 25.85
- INRc 20 μL sample [26]: 21.03
- INRo [26]: 0.78
- ΔINR 10 μL − 5 μL [26]: 3.12
- ΔINR 20 μL − 5 μL [26]: 18.56
- content at which the INRc-difference (20 μL minus 5 μL) reaches 0.5 (normal plasma NKP, linear part of the graph (FIG. 8, FIG. 2)): about 80 μg/L
